Values joined by “and” are separate entries in the source; they are usually repeats but may differ in a detail not shown here. Equal values may be shown once. “Also recorded” adds a separate entry of the source. Read-outs that look alike come from different tables or passages of the source.
Columns and labels:
EBV = assay: In vitro potency against dsDNA viruses: EBV; format: cell-based
JC = assay: In vitro potency against dsDNA viruses: JC; format: cell-based, JC virus
BKV = assay: First fifteen EIND patients: BKV; format: in vivo, human; settings: one of two BKV patients
BKV(Dunlop) = BKV(Dunlop) replication in primary human RPTECs (qPCR, RT-qPCR, western blot, immunofluorescence); format: cell-based, BK virus; settings: for antiviral activity of stored stock compared to freshly prepared drug: tested at 0.31 uM
Protocol: RPTECs were infected with BKV(Dunlop). CMX001 was added before and 2 h postinfection (hpi). Cells and supernatants were harvested 24-72 hpi. BKV replication was examined by TaqMan assays, western blotting, IF staining and viability of RPTECs was examined by WST-1 assay, BrdU incorporation and a TaqMan assay.
Primary human renal proximal tubule epithelial cells (RPTECs), BKV(Dunlop) and all methods as previously described by Bernhoff et al (See Bernhoff et al., Cidofovir inhibits polyomavirus BK replication in human renal tubular cells downstream of viral early gene expression, Am J Transplant 8, 1413-1422 (2008).) Only one exception, quantitative PCR (qPCR) to quantify intracellular or extracellular BKV DNA load was performed with a different primer/probe set also targeting the LTag gene (See Hirsch, et al., J. Prospective study of polyomavirus type BK replication and nephropathy in renal-transplant recipients, N Engl J Med., 347, 488-496 (2002)). Before each experiment, CMX001 was freshly dissolved to 1 mg/ml in methanol/water/ammonium hydroxide (50/50/2). It was further diluted in RPTEC growth medium.
Before each experiment, CMX001 was freshly dissolved to 1 mg/ml in methanol/water/ammonium hydroxide (50/50/2) and further diluted in RPTEC growth medium. About 50% confluent RPTECs were infected with BKV (Dunlop) MOI 1. After 2 h incubation at 37° C., the virus was replaced with fresh medium with or without CMX001 unless otherwise stated.
At 24, 48 and 72 hpi cells were lysed and total RNA extracted using the mirVana PARIS kit (Ambion). RNA samples were treated with DNase turbo (Ambion) to remove residual DNA before the RNA quality was checked by agarose gel electrophoresis and RNA concentration was determined. cDNA was generated from 250 ng RNA per sample using the High Capacity cDNA kit (Applied Biosystems).
To assay extracellular BKV loads, cell culture supernatants were harvested at 24, 48 and 72 hpi and frozen in −70° C. until automatic extraction by a robot (GenoM-48, Qiagen, www.qiagen.com). For intracellular BKV loads, cells were washed, trypsinized and pelleted at 220 g for 10 min, resuspended in G2 buffer from the MagAttract DNA Mini M48 kit (Qiagen) and frozen at −70° C. until extraction with the same robot.
To quantify intracellular or extracellular BKV DNA load, a quantitative PCR (qPCR) with primers and probe targeting the large T-antigen (LT-ag) gene was used. For normalization of intracellular BKV DNA each sample was analyzed in parallel by the qPCR for the gene for aspartoacylase (ACY) to correct for cellular DNA.
Cells were lysed in Cell Disruption buffer (mirVana PARIS kit, Ambion) 24, 48 and 72 hpi and stored at −70° C. until separation with SDS polyacrylamidegel electrophoresis (SDS-PAGE) followed by blotting onto PVDF membrane. Detection of BKV and cellular proteins was performed with polyclonal rabbit antiserum directed against LT-ag (1:2000), VP1 (1:10000), or agno (1:10000) (1, 27) and a monoclonal mouse antibody directed against GAPDH (Ab8245; 1:5000, Abcam, www.abcam.com) followed by anti-rabbit and anti-mouse infrared dye-labeled secondary antibodies (IR Dye 800, Rockland, www.rockland-inc.com and Alexa Fluor 680, Invitrogen, www.invitrogen.com) both 1:5000 before detection with Licor Odyssey Infrared detection system.
Cells were washed in PBS, methanol fixed, blocked with 3% goat-serum in PBS for 30 min, followed by subsequently incubation with primary (37° C.) and secondary (r.t.) antibodies for 30 min. Primary antibodies were monoclonal anti-SV40 LT-ag antibody (Ab-2 Pab416; 1:100, Chemicon, www.chemicon.com) and polyclonal rabbit antiserum directed against agno or VP1 (both 1:1000). The secondary antibodies were anti-mouse conjugated with AlexaFluor 568 and anti-rabbit conjugated with AlexaFluor 488 (1:500; Molecular Probes, www.invitrogen.com). Nuclei were labeled with DRAQ5™ (Biostatus, www.biostatus.com). […]

BK Virus [1] = assay: In vitro potency against BK Virus in WI-38 cells; format: cell-based
BK Virus [2] = settings: has been reported; read-out: EC50 for BK virus infection; cited from earlier work
JCV = assay: Patients with JC viral infections treated with CMX001; format: in vivo, human
Protocol: A study has been conducted on patients with various JC viral infections and diseases associated with JC virus. After these patients are treated with CMX001, the patients have shown significant improvements.

JCV Mad-4 = JCV Mad-4 extracellular load in astrocyte cells; format: cell-based, JC virus; settings: in the presence of CMX001

## CCCCCCCCCCCCCCCCOCCCOP(=O)(O)CO[C@H](CO)Cn1ccc(N)nc1=O [CMX001, Hexadecyloxypropyl-cidofovir]
EBV; CMX001 versus cidofovir EC50
  Enhanced Activity: >4250
EBV; human gammaherpesvirus 4, Dardi
  EC50: 40 nM
CMV; person with renal failure, following the first dose
  peak plasma concentration of CMX001: 264 ng/mL
CMV; person, Week 5, 120 mg
  Plasma CMV by PCR: 3307
CMV; person, Week 10, 120 mg
  Plasma CMV by PCR: 1541
CMV; person, following 2 weeks of skipped doses
  CMV DNA: 5,037 copies/mL
CMV; person, following the first dose (180 mg)
  CMV plasma DNA: undetectable
CMV; person, following the start of treatment
  CMV DNA: undetectable
CMV; person, more than 16 weeks
  renal, liver, or hematologic function: No drug-related adverse changes in renal, liver, or hematologic function were observed
JC; CMX001 versus cidofovir EC50
  Enhanced Activity: 19
JC; JC polyomavirus
  EC50: 20 nM
BKV
  response: > 1.5 log 10
BKV(Dunlop); 10 μM CMX001, 72 hpi
  BKV-infected cells, immunofluorescence: no BKV-infected cell was observed
BKV(Dunlop); Betapolyomavirus hominis, RPTEC, RPTECs, 72 h p.i., viral input subtracted, read-out: IC90, extracellular BKV load
  IC90: 310 nM
BKV(Dunlop); CMX001 0.31 μM
  reduction of late protein expression: about 70%
BKV(Dunlop); CMX001 0.31 μM for 24 h
  reduction of BKV load at 96 hpi: approximately 90%
BKV(Dunlop); CMX001 0.31 μM, 24 hpi
  effect on early gene (LT-ag) expression: no effect; also recorded: No difference
BKV(Dunlop); CMX001 0.31 μM, 48 and 72 hpi
  reduction of late gene expression: 70-90%
BKV(Dunlop); CMX001 0.31 μM, 48 hpi
  reduction of BKV DNA replication (intracellular BKV load): 94% and 90%
  reduction of LT-ag mRNA: 33%
  reduction of agno, western blotting: 97%
  reduction of late mRNA levels: 93%
BKV(Dunlop); CMX001 0.31 μM, 72 hpi
  reduction of BKV DNA replication (intracellular BKV load): 63% and 91%
  reduction of LT-ag mRNA: 64%
  reduction of agno, western blotting: 96%
  reduction of late mRNA levels: 82%
BKV(Dunlop); CMX001 0.31 μM, 48 h p.i.
  decrease of VP1, western blotting: 86% and 85%
  reduction of LTag staining: 33%
BKV(Dunlop); CMX001 0.31 μM, 72 h p.i.
  decrease of VP1, western blotting: 63% and 96%
  reduction of LTag staining: 30%
BKV(Dunlop); CMX001 0.31 uM, immunofluorescence 72 h p.i.
  decrease in BKV agnoprotein expressing cells: approximately 60%
BKV(Dunlop); CMX001 0.31 μM, CDV 40 μg/mL
  exposure time for IC-90 of BKV progeny loads at 96 hpi: 24 h
BKV(Dunlop); pre-treatment 23-24 h until one hour before infection, BKV load 72 h p.i.
  reduction of viral load by pre-treatment: about 50%
BKV(Dunlop); pre-treatment 4 hours, ending 20 hours before infection
  effect of pre-treatment on BKV load: hardly any effect; also recorded: did not inhibit BKV replication
BKV(Dunlop); stock 1 mg/ml one week at 4° C.
  antiviral activity of stored stock compared to freshly prepared drug: less than 60%
BKV(Dunlop); stock 1 mg/ml one week at −20° C.
  antiviral activity of stored stock compared to freshly prepared drug: approximately 90%
BK Virus [1]; Betapolyomavirus hominis, WI-38
  EC50: 130 nM
BK Virus [1]; WI-38, cells harvested 7 days after infection
  selectivity index (SI)-50: 113
BK Virus [2]
  EC50: 140 nM
JCV; Sub 1, D7
  JCV Viral Load, Urine: D7: 557 copies/mL
JCV; Sub 1, ~5 wks 2 mg/kg, D32 (Pre: 306)
  JCV Viral Load, CSF: D32: <300 copies/mL
JCV; Sub 3, 4 days (2 doses) 4 mg/kg, Post (Pre: 518)
  JCV Viral Load, CSF: Post: <500 copies/mL
JCV; Sub 4, EOT (Pre: 148)
  JCV Viral Load, Blood: EOT: 261 copies/mL
JCV; Sub 4, ~2.5 wks 4 mg/kg, EOT (Pre: 16,474)
  JCV Viral Load, CSF: EOT: 1070 copies/mL
JCV; Sub 5, ongoing ~3 wks 4 mg/kg, D7 (Pre: 1800)
  JCV Viral Load, Blood: D7 500 copies/mL
JCV; individual patients Sub 1-5 during CMX001 treatment
  Clinical Comment: During treatment, the patient regained swallowing; also recorded: became undetectable (<300 copies/mL) in the CSF
JCV Mad-4
  change in extracellular JCV load over 7 days: less than 1 log
